Reference: patent US7220580B2, “Sphingosine 1-phosphate receptor gene, sppr” (University of South Florida, priority 2000, dated 2007)

What was measured:
S1P5 = biological target: T1, S1P5 (Homo sapiens, UniProt Q9H228); assay: Erk2 kinase assay in HEK293 cells transiently transfected with S1P5; format: cell-based; conditions: HEK293 cells transiently transfected with S1P5 and HA-Erk2, 1 μM ligand for 5 min, MBP as substrate
T1 construct: The largest PCR product contains a complete open reading frame; expressed in transfected cells; host or cells: HEK293
Description: Vector plasmid is added to each transfection reaction to equalize the amount of total DNA (2.1 μg). […] HA-ERK2 is immunoprecipitated from one half of each whole cell lysate and used for measuring the kinase activity utilizing MBP as substrate, while HA-ERK2 immunoprecipitated from the other half is used for determining the amount of ERK2 protein in the immune complex. FIG. 10 illustrates a representative autoradiogram of ^32P incorporation into MBP catalyzed by HA-ERK 2 immunoprecipitated from transiently transfected cells treated as indicated. […] Cell Culture and Transfection. HEK293 cells are grown in Dulbecco's modified eagle's medium supplemented with 10% fetal bovine serum. The cells are transiently transfected with a plasmid encoding HA-tagged Erk2 (HA-Erk2) and either pcDNA 3 S1P5 or pcDNA 3.1. Transfection is achieved by incubating the cells in 60 mm plates with plasmid/Lipofectamine complexes (2.1 μg total DNA/12 μl Lipofectamine) in serum-free medium for 5 hours. The DNA complexes are removed from the medium and the cells are starved overnight in serum-free medium and then used for experimentation. Erk2 Kinase Assay. […] The cells are lysed in buffer containing 50 mM Tris-HC1 pH 7.5, 150 mM NaCl, 1 mM EDTA, 1 mM EGTA, 1 mM DTT, 1% Triton X-100, 25 mM NaF, 5 mM sodium pyrophosphate, 20 mM ρ-nitrophenyl phosphate, 2 μg/mL leupeptin, and 100 μg/mL phenylmethylsulfonyl fluoride. HA-Erk2 is immunoprecipitated with the monoclonal antibody HA.11 (Convance, Richmond, Calif.). […] The reaction is terminated with SDS-containing gel-loading buffer and the reaction mixtures are analyzed on 11% SDS-polyacrylamide gels. The gels are processed by autoradiography. The bands on the gels are quantitated with a PhosphorImager. Erk2 protein in the immunoprecipitate is determined by immunoblotting with a polyclonal antibody to Erk2.

EDG-8 [1] = biological target: T2, EDG-8 (Rattus norvegicus, UniProt Q9JKM5); conditions: CHO cells expressing EDG-8; cited from earlier work
T2 construct: host or cells: CHO cells

EDG-8 [2] = biological target: T2, EDG-8; conditions: CHO cells expressing EDG-8; cited from earlier work; remark: listed apart in the source

T1 sequence (Q9H228 whole entry): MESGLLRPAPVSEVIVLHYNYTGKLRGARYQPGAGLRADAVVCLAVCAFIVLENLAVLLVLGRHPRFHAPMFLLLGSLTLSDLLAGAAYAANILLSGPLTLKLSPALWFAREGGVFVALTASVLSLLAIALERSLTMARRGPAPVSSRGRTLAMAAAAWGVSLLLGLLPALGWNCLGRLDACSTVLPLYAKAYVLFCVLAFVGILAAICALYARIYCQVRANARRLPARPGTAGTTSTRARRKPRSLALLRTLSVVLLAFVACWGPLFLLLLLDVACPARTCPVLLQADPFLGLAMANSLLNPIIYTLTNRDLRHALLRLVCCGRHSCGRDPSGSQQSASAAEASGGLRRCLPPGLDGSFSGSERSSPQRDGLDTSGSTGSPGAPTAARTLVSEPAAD
T2 sequence (Q9JKM5 whole entry): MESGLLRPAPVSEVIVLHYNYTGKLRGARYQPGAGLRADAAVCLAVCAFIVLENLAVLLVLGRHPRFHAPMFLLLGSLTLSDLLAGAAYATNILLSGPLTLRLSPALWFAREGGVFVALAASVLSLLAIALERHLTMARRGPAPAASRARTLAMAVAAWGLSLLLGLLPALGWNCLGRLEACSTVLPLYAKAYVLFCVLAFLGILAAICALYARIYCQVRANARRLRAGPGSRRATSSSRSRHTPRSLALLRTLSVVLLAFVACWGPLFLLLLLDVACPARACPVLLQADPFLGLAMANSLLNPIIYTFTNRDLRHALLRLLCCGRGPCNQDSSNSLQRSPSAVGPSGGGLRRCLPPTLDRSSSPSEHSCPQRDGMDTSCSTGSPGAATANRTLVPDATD

Compound	activation of Erk2 activity (S1P5)	activation of Erk2 activity (S1P5; listed as lysophosphatidic acid)	cell proliferation (EDG-8 [1])	activation of Erk2 activity (S1P5; listed as sphingosine-1-phosphate)	serum-induced activation of Erk1/2 (EDG-8 [2])
lysophosphatidic acid [LPA]	not	does not			
CCCCCCCCCCCCC/C=C/[C@@H](O)[C@@H](N)COP(=O)(O)O [S1P, sphingosine-1-phosphate]	activates Erk2		inhibits the cell proliferation	activation of Erk2 activity	inhibited
